Measured values as given in the supplement of paper PMC10307832.

Key:
Assay in all cases: relative viability (nuclei count vs DMSO), 5 days (fraction); higher = more cells survive
[1] = system: NCI-H1915
Outline: (§1)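 Relative viability divides the nuclei count in treated wells by that in vehicle wells. Lung cancer cell lines were seeded in 1536-well plates, dosed by pin tool the next day, and fixed and stained after 5 days in one step with final 0.05% Triton X-100, 1% formaldehyde and 1 ug/ml Hoechst. Dosing was a single drug or a fixed anchor-drug dose plus five library-drug doses (not always all listed) in √10 steps, and values are medians of duplicate plates imaged at 4×.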

[2] = system: NCI-H1563
Outline: as §1

[3] = system: SW 900
Outline: as §1

[4] = system: NCI-H1755
Outline: as §1

[5] = system: NCI-H596
Outline: as §1

[6] = system: LCLC-103H
Outline: as §1

[7] = system: RERF-LC-KJ
Outline: as §1

[8] = system: SK-MES-1
Outline: as §1

[9] = system: NCI-H1651
Outline: as §1

[10] = system: NCI-H441
Outline: as §1

[11] = system: NCI-H460
Outline: as §1

[12] = system: NCI-H661
Outline: as §1

[13] = system: NCI-H322M
Outline: as §1

[14] = system: PC-14
Outline: as §1

[15] = system: NCI-H520
Outline: as §1

[16] = system: NCI-H3122
Outline: as §1

[17] = system: NCI-H650
Outline: as §1

[18] = system: NCI-H2170
Outline: as §1

[19] = system: NCI-H2347
Outline: as §1

[20] = system: NCI-H727
Outline: as §1

[21] = system: NCI-H1355
Outline: as §1

[22] = system: LXF-289
Outline: as §1

SMILES: Clc1ccc(Nc2nnc(Cc3ccncc3)c3ccccc23)cc1 [Vatalanib] + COc1cc2c(Oc3ccc(NC(=O)C4(C(=O)Nc5ccc(F)cc5)CC4)cc3F)ccnc2cc1OCCCN1CCOCC1 [Foretinib] (partner 0.25 µM)
- relative viability ([1]; first compound 0.04 µM): 1.09
- relative viability ([1]; first compound 0.1265 µM): 1.04
- relative viability ([1]; first compound 0.4 µM): 1.11
- relative viability ([1]; first compound 1.265 µM): 1.05
- relative viability ([1]; first compound 4 µM): 1.13
- relative viability ([2]; first compound 0.04 µM): 0.92
- relative viability ([2]; first compound 0.1265 µM): 0.874
- relative viability ([2]; first compound 0.4 µM): 0.995
- relative viability ([2]; first compound 1.265 µM): 0.875
- relative viability ([2]; first compound 4 µM): 0.901
- relative viability ([3]; first compound 0.1265 µM): 0.761
- relative viability ([3]; first compound 0.4 µM): 0.942
- relative viability ([3]; first compound 1.265 µM): 0.922
- relative viability ([3]; first compound 4 µM): 0.918
- relative viability ([4]; first compound 0.04 µM): 0.88
- relative viability ([4]; first compound 0.1265 µM): 0.964
- relative viability ([4]; first compound 0.4 µM): 0.954
- relative viability ([4]; first compound 1.265 µM): 0.905
- relative viability ([4]; first compound 4 µM): 0.846
- relative viability ([5]; first compound 0.04 µM): 0.775
- relative viability ([5]; first compound 0.1265 µM): 1.06
- relative viability ([5]; first compound 0.4 µM): 0.909
- relative viability ([5]; first compound 1.265 µM): 0.81
- relative viability ([5]; first compound 4 µM): 0.771
- relative viability ([6]; first compound 0.04 µM): 0.829
- relative viability ([6]; first compound 0.1265 µM): 0.705
- relative viability ([6]; first compound 0.4 µM): 0.752
- relative viability ([6]; first compound 1.265 µM): 0.739
- relative viability ([6]; first compound 4 µM): 0.756
- relative viability ([7]; first compound 0.04 µM): 0.889
- relative viability ([7]; first compound 0.1265 µM): 0.927
- relative viability ([7]; first compound 0.4 µM): 0.925
- relative viability ([7]; first compound 1.265 µM): 0.89
- relative viability ([7]; first compound 4 µM): 0.766
- relative viability ([8]; first compound 0.04 µM): 1.02
- relative viability ([8]; first compound 0.1265 µM): 0.82
- relative viability ([8]; first compound 0.4 µM): 0.943
- relative viability ([8]; first compound 1.265 µM): 0.881
- relative viability ([8]; first compound 4 µM): 0.692
- relative viability ([9]; first compound 0.04 µM): 0.885
- relative viability ([9]; first compound 0.1265 µM): 0.768
- relative viability ([9]; first compound 0.4 µM): 0.94
- relative viability ([9]; first compound 1.265 µM): 0.803
- relative viability ([9]; first compound 4 µM): 0.817
- relative viability ([10]; first compound 0.04 µM): 0.994
- relative viability ([10]; first compound 0.1265 µM): 0.977
- relative viability ([10]; first compound 0.4 µM): 1.15
- relative viability ([10]; first compound 1.265 µM): 0.881
- relative viability ([10]; first compound 4 µM): 0.893
- relative viability ([11]; first compound 0.04 µM): 1.11
- relative viability ([11]; first compound 0.1265 µM): 0.894
- relative viability ([11]; first compound 0.4 µM): 0.93
- relative viability ([11]; first compound 1.265 µM): 0.934
- relative viability ([11]; first compound 4 µM): 1.06
- relative viability ([12]; first compound 0.04 µM): 1
- relative viability ([12]; first compound 0.1265 µM): 1.04
- relative viability ([12]; first compound 0.4 µM): 1.07
- relative viability ([12]; first compound 1.265 µM): 0.975
- relative viability ([12]; first compound 4 µM): 0.989
- relative viability ([13]; first compound 0.04 µM): 1
- relative viability ([13]; first compound 0.1265 µM): 0.974
- relative viability ([13]; first compound 0.4 µM): 1.03
- relative viability ([13]; first compound 1.265 µM): 0.878
- relative viability ([13]; first compound 4 µM): 0.896
- relative viability ([14]; first compound 0.04 µM): 0.981
- relative viability ([14]; first compound 0.1265 µM): 0.855
- relative viability ([14]; first compound 0.4 µM): 0.85
- relative viability ([14]; first compound 1.265 µM): 0.895
- relative viability ([14]; first compound 4 µM): 0.932
- relative viability ([15]; first compound 0.04 µM): 0.875
- relative viability ([15]; first compound 0.1265 µM): 0.662
- relative viability ([15]; first compound 0.4 µM): 0.781
- relative viability ([15]; first compound 1.265 µM): 0.842
- relative viability ([15]; first compound 4 µM): 0.697
- relative viability ([16]; first compound 0.04 µM): 0.997
- relative viability ([16]; first compound 0.1265 µM): 0.978
- relative viability ([16]; first compound 0.4 µM): 0.939
- relative viability ([16]; first compound 1.265 µM): 0.897
- relative viability ([16]; first compound 4 µM): 0.954
- relative viability ([17]; first compound 0.04 µM): 1.08
- relative viability ([17]; first compound 0.1265 µM): 1.01
- relative viability ([17]; first compound 1.265 µM): 0.973
- relative viability ([17]; first compound 4 µM): 0.978
- relative viability ([18]; first compound 0.04 µM): 1.03
- relative viability ([18]; first compound 0.1265 µM): 1.09
- relative viability ([18]; first compound 0.4 µM): 1.04
- relative viability ([18]; first compound 1.265 µM): 0.978
- relative viability ([18]; first compound 4 µM): 1.02
- relative viability ([19]; first compound 0.1265 µM): 0.676
- relative viability ([19]; first compound 0.4 µM): 0.656
- relative viability ([19]; first compound 1.265 µM): 1.05
- relative viability ([19]; first compound 4 µM): 0.785
- relative viability ([20]; first compound 0.04 µM): 0.901
- relative viability ([20]; first compound 0.1265 µM): 0.724
- relative viability ([20]; first compound 0.4 µM): 0.703
- relative viability ([20]; first compound 1.265 µM): 0.572
- relative viability ([20]; first compound 4 µM): 0.925
- relative viability ([21]; first compound 0.04 µM): 1.01
- relative viability ([21]; first compound 0.1265 µM): 1.01
- relative viability ([21]; first compound 0.4 µM): 1.02
- relative viability ([21]; first compound 1.265 µM): 0.847
- relative viability ([21]; first compound 4 µM): 0.971
- relative viability ([22]; first compound 0.04 µM): 0.97
- relative viability ([22]; first compound 0.1265 µM): 0.966
- relative viability ([22]; first compound 0.4 µM): 0.98
- relative viability ([22]; first compound 1.265 µM): 0.945
- relative viability ([22]; first compound 4 µM): 0.931
